Results on three molecules are retold here after US12370231B2, “Compositions for inhibiting degradation of hyaluronic acid and methods of use thereof” (Epidarus Therapeutics, LLC, priority 2020, dated 2025).

Holding throughout (assay type): biochemical
For assay [1], the target named is T1, HYAL1 (Homo sapiens, UniProt Q12794).
T1 construct: Human HYAL1 enzyme was isolated from urine following published protocols; from tissue; host or cells: human urine
T1 sequence (Q12794 22-435): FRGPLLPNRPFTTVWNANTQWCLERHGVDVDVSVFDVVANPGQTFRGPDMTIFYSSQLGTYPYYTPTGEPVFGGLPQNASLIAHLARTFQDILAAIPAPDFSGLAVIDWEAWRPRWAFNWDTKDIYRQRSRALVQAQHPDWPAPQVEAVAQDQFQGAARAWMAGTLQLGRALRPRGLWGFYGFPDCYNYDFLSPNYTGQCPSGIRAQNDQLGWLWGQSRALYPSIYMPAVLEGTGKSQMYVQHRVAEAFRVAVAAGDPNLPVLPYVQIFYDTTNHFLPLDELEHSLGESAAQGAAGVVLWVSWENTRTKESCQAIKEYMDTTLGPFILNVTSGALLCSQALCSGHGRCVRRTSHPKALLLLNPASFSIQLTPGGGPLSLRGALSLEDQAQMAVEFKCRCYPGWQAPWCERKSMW
In words: HYAL1-inhibitory activity of Epidarus extracts after simulated digestion with additives/excipients. The conditions noted are these: test ingredient with Epidarus extracts, after simulated gastric and intestinal digestion. The protocol:
In order to develop bio-active formulations for osteoarthritis and bladder […] cystitis therapies in humans and animals, oral bio-availability studies were undertaken. […] Maltodextrin is a partially hydrolyzed vegetable starch and is made from corn, rice, potato starch, wheat, or other vegetable sources. […] The gastric digest was adjusted to pH 6.8 with 1M Sodium Hydroxide and mixed with an equivalent volume of Simulated Intestinal Fluid (SIF) to which was added a commercial preparation of canine pancreatic enzymes, at the following concentrations: Lipase (2,000 to 10,000 Units per ml), Protease (100 to 1,000 Units per ml), Amylase (200 to 2,000 Units per ml) and Bile Salts to 10 mM. Following the simulated complete digestion of the chew/tablet formulations, the levels of active ingredients were assayed and the HYAL1-inhibitory activity was determined. These assays were used to test a range of additives/excipients used in the production of functional nutritional supplements for human and animal use.

In assay [2] the target is T1, HYAL1. The assay can be described thus: HYAL1 degradation of synovial fluid HA. The conditions noted are these: 12 ug Synovial Fluid HA per assay, 2 hours, 37 degrees. Here is the method: Human HYAL1 enzyme was isolated from urine following published protocols (Afify, A. M. et al. Archives of Biochemistry and Biophysics 305, 434-441, 1993). The enzyme activity was calibrated and validated by comparison to commercially available recombinant human HYAL1 (R&D Systems, USA).
Synovial fluid from healthy joints is a solution of 5 to 7 mg/ml of High Molecular weight Hyaluronic Acid. The bovine metacarpopharangeal joints used in these experiments were from 2 year old steers and the synovial fluid was verified by Agarose Gel electrophoresis to be composed of predominantly High MW HA.
Degradation of Synovial Fluid by urinary HYAL1 breaks down the HA to tetra-saccharides in 2 hours at 37 degrees, using a standard HYAL1 assay, testing 12 ug Synovial Fluid HA per assay.
An extract mixture containing Star Anise Pod Extract, Linden Flower Extract and Prunella Flower Spike Extract was also tested to determine the minimum concentration of extract mix required to achieve 100% inhibition of Synovial Fluid HA under the same conditions as used for pentosan polysulfate. This concentration was determined to be 280 ng/ml.

Assay [3] addresses T1, HYAL1. In words: Anti-HYAL1 activity of Epidarus Extract Mix after incubation with antimicrobial agents. The conditions noted are these: agent at 0.3%; 5 mg/ml Epidarus Extract Mix in 5% 1,3 Propanediol/Water, 48 hours, 37 degrees; relative to control without agent. Here is the method: In order to achieve stable, bio-active cosmeceutical formulations, a range of commercially available cosmetic ingredients were assessed for their ability to solubilize the Prunella, Linden or Star Anise extracts or mixed extracts of Prunella, Linden or Star Anise without compromising the HYAL1—inhibitory activity of the botanical extracts. These included, for example: Sepigel 305™, Simugel 600™, Arlasolve™-DMI, Carbopol® Ultrez 21, Hydrolyte®5, Hydrolyte®6 and Zemea® 1,3 Propanediol. In addition, a number of preservative/antimicrobial compounds were similarly assessed for efficacy and effects on biological activity of the added botanical extracts. These included, for example: Phenoxyethanol, Optiphen™ (Phenoxyethanol and Caprylyl Glycol), Methylparaben and Chlorphenesin.
The antimicrobial agents were incubated in a solution of 5% 1,3 Propanediol/Water containing 5 mg/ml of Epidarus Extract Mix (Prunella, Star Anise and Linden) at the indicated concentrations for 48 hours at 37 degrees Centigrade. The anti-HYAL1 activity was measured relative to a control without added antimicrobial agents.

As for `CCCCCCCCCCCCCCCCCC(=O)O` [Stearic Acid], on HYAL1 [1], the “% Inhibition of anti-HYAL1 activity” value is 0%. Turning to pentosan polysulfate, the “concentration causing 100% inhibition of HYAL1” value on HYAL1 [2] was 156 ng/mL.

Turning to `COC(=O)c1ccc(O)cc1` [Methylparaben], the “Anti-HYAL1 Activity” value at HYAL1 [3] was 45%.
